According to US20180188270A1, “DIAGNOSTIC TEST FOR ALZHEIMER'S DISEASE BASED ON IDENTIFICATION OF A PROTEOLYTIC PATHWAY” (Health Research, Inc., priority 2015, published 2018):
“Also recorded” adds a separate entry of the source.

Columns and labels:
plasma mSRC = experiment: Plasma SRC concentration in mice by ELISA; type: in vivo, mouse; conditions: FXII−/− mice, CCl4 0.5 g/kg or hPEPD 4 mg/kg i.p., 24 h
Method: Animal studies. All animal studies were performed in accordance with protocols approved by the Institutional Animal Care and Use Committee at Roswell Park Cancer Institute. Male mice at 7-8 weeks of age were used, including wild type (WT) mice (C57BL/6), and mice deficient in FXII (C57BL/6-FXII^−/−) or FVII (C57BL/6-FVII^tTA/tTA). WT C57BL/6 mice were purchased from Taconic. C57BL/6-FXII^−/− mice and C57BL/6-FVII^tTA/tTA mice were bred in our own facility and genotyped. The breeders were kindly provided by Dr. Francis J. Castellino at University of Notre Dame. […] CCl4 was dissolved in corn oil, whereas all other substances were dissolved in PBS. The vehicle or the test substance was given to mice in 0.1 ml volume per 20 g body weight. Blood was collected from the mice at specific times by cardiac puncture at the time of sacrifice by carbon dioxide, and heart, liver and kidney were also collected from some of the mice. […]
Measurement of plasma levels of PEPD, SRC, Aβ1-42 and FI. […] Upon adequate color development, 100 μl of stop solution (Cell Signaling, 7002) was added to each well, and absorbance at 450 nm was promptly recorded by a microtiter plate reader. Plasma FI concentration was determined using an assay kit (400-374-130050) from GenWay Biotech, following the manufacturer's instruction.

ERBB1 and ERBB2 = experiment: Tissue levels and phosphorylation of ERBB1 and ERBB2 by IB; type: in vivo, mouse; conditions: CCl4 0.5 g/kg or hPEPD 4 mg/kg i.p., 24 h
Method: (§1) Animal studies. All animal studies were performed in accordance with protocols approved by the Institutional Animal Care and Use Committee at Roswell Park Cancer Institute. Male mice at 7-8 weeks of age were used, including wild type (WT) mice (C57BL/6), and mice deficient in FXII (C57BL/6-FXII^−/−) or FVII (C57BL/6-FVII^tTA/tTA). WT C57BL/6 mice were purchased from Taconic. C57BL/6-FXII^−/− mice and C57BL/6-FVII^tTA/tTA mice were bred in our own facility and genotyped. The breeders were kindly provided by Dr. Francis J. Castellino at University of Notre Dame. […] CCl4 was dissolved in corn oil, whereas all other substances were dissolved in PBS. The vehicle or the test substance was given to mice in 0.1 ml volume per 20 g body weight. Blood was collected from the mice at specific times by cardiac puncture at the time of sacrifice by carbon dioxide, and heart, liver and kidney were also collected from some of the mice. Blood was collected into K3 EDTA-containing tubes (Multivette 600 from Sarstedt), unless specified otherwise. All blood samples were promptly centrifuged to obtain plasma samples.
IB. […] Protein concentrations in all samples were measured by the BCA assay kit. […] The proteins were transferred to polyvinylidene fluoride membrane, probed with specific antibodies and detected using the ECL Plus Kit (Amersham) or the SuperSignal West Pico Kit (Thermo Scientific).

liver = experiment: Liver damage after CCl4: plasma AST and ALT, liver weight; type: in vivo, mouse; conditions: WT mice and FXII−/− mice, CCl4 0.5 g/kg i.p., 24 h
Method: as §1
Measurement of Plasma Levels of Aspartate Transaminase (AST) and Alanine Transaminase (ALT). Plasma AST activity was measured using the Infinity™ AST (GOT) Reagent kit (Thermo, TR70121). Plasma ALT activity was measured using the Infinity™ ALT (GPT) Reagent kit (Thermo, TR71121). […]

plasma Aβ1-42 = experiment: Plasma Aβ1-42 concentration in mice by ELISA; type: in vivo, mouse; conditions: FXII−/− mice, CCl4 0.5 g/kg or hPEPD 4 mg/kg i.p., 24 h
Method: Animal studies. All animal studies were performed in accordance with protocols approved by the Institutional Animal Care and Use Committee at Roswell Park Cancer Institute. Male mice at 7-8 weeks of age were used, including wild type (WT) mice (C57BL/6), and mice deficient in FXII (C57BL/6-FXII^−/−) or FVII (C57BL/6-FVII^tTA/tTA). WT C57BL/6 mice were purchased from Taconic. C57BL/6-FXII^−/− mice and C57BL/6-FVII^tTA/tTA mice were bred in our own facility and genotyped. […] CCl4 was dissolved in corn oil, whereas all other substances were dissolved in PBS. The vehicle or the test substance was given to mice in 0.1 ml volume per 20 g body weight. Blood was collected from the mice at specific times by cardiac puncture at the time of sacrifice by carbon dioxide, and heart, liver and kidney were also collected from some of the mice. Blood was collected into K3 EDTA-containing tubes (Multivette 600 from Sarstedt), unless specified otherwise. All blood samples were promptly centrifuged to obtain plasma samples.

plasma PEPD = experiment: Plasma PEPD concentration in mice by ELISA; type: in vivo, mouse; conditions: CCl4 0.5 g/kg i.p., 24 h
Method: as §1
Measurement of plasma levels of PEPD, SRC, Aβ1-42 and FI. […] The plates were washed three times with phosphate buffered saline tween-20 (PBST) and the coated wells were blocked by incubation with 200 μl/well of 1% BSA in PBS for at least 2 h at RT. After another round of wash with PBST, the plates were incubated with appropriately diluted Aβ1-42 standard, SRC standard or plasma samples (100 μl/well) for 2 h at RT. The plates were then washed with PBST and incubated with an anti-Aβ1-42 rabbit polyclonal antibody (sc-9129) or anti-SRC rabbit monoclonal antibody (2123) at 100 μl/well for 2 h at RT. The plates were washed again with PBST, and each well was incubated with a goat anti-rabbit IgG-HRP conjugate (100 μl) for 1 h at RT. After yet another round of wash with PBST, each well was incubated with 100 μl of HRP substrate 3,3′,5,5′-tetramethylbenzedine (Cell Signaling, 7004). Upon adequate color development, 100 μl of stop solution (Cell Signaling, 7002) was added to each well, and absorbance at 450 nm was promptly recorded by a microtiter plate reader. Plasma FI concentration was determined using an assay kit (400-374-130050) from GenWay Biotech, following the manufacturer's instruction.

plasma hAβ1-42 = experiment: Effects of oral anticoagulants on plasma level of hAβ1-42 in mice; type: in vivo; conditions: for elevation of plasma levels of hAβ1-42: hAβ1-42 40 μg/kg, 6 h; for top dose tested is the maximal soluble dose: mouse, in vivo
Method: Blood was collected into K3 EDTA-containing tubes (Multivette 600 from Sarstedt). […] Rivaroxaban, dabigatran (dabigatran elexilate) and warfarin (warfarin sodium tablets) were from Bristol-Myers-Squibb, Combi-Blocks, and Advanced Chemblocks, respectively. Rivaroxaban was dissolved in 10% ethanol, 40% Solutol HS15 (Sigma) and 50% water and was administered to mice in 0.2 ml volume per 20 g body weight. Dabigatran was dissolved in 2% dimethyl sulfoxide in soy oil (Sigma) and was also administered to mice in 0.2 ml volume per 20 g body weight. Warfarin was dissolved in water and was administered to mice in 0.1 ml volume per 20 g body weight.

FXII [1] = experiment: Binding to coagulation factor FXII (IP and IB); design: species or system human; conditions: 40 nM (hAβ1-42 200 nM) with FXII in PBS, 2 h
Method: Binding reactions were carried out in PBS in a total volume of 100 μl for 2 h at 37° C. To assess binding of hPEPD to HMWK, PK, FXI, FXII or a FXII mutant, hPEPD at 40 nM was incubated with a potential binding partner at 0.5 μM. All FXII mutants are His tagged, while FXII is either 6XHis-tagged (generated in our own laboratory) or not His-tagged (purchased commercially), depending on the experiment. To compare hPEPD and its mutants for binding to FXII, hPEPD or a mutant (40 nM) was incubated with FXII at 0.5 μM. Likewise, to assess binding of mSRC to FXII and its mutants, mSRC (40 nM) was incubated with FXII or a mutant at 0.5 μM. At the end of the incubation, 300 μl PBS containing a specific primary antibody was added to the incubation solution, which was further incubated at 4° C. overnight, followed by IP by protein G-agarose, and the precipitates were analyzed by IB. […] The precipitates were re-dissolved in 30 μl of 2% SDS, which were analyzed along with the supernatants by IB.

FXII [2] = experiment: FXII activation, chromogenic assay; type: biochemical, human; conditions: FXII 0.97 nM, ZnCl2-containing PBS, RT
Method: Measurement of FXII activation. […] FXII activation was followed for 3 h at RT by monitoring the conversion of the chromogenic substrate at 405 nm by a microtiter plate reader.
Each value is mean±SD (n=3).

[3] = test system: plasma coagulation factors FXII, PK, HMWK, FXI, FIX, FX, FII, FI and FVII; experiment: Changes in plasma coagulation factors in mice by IB (FI by ELISA); type: in vivo, mouse; conditions: WT mice, 6 h after i.p. treatment
Method: Animal studies. […] Male mice at 7-8 weeks of age were used, including wild type (WT) mice (C57BL/6), and mice deficient in FXII (C57BL/6-FXII^−/−) or FVII (C57BL/6-FVII^tTA/tTA). WT C57BL/6 mice were purchased from Taconic. C57BL/6-FXII^−/− mice and C57BL/6-FVII^tTA/tTA mice were bred in our own facility and genotyped. […] CCl4 was dissolved in corn oil, whereas all other substances were dissolved in PBS. The vehicle or the test substance was given to mice in 0.1 ml volume per 20 g body weight. Blood was collected from the mice at specific times by cardiac puncture at the time of sacrifice by carbon dioxide, and heart, liver and kidney were also collected from some of the mice. Blood was collected into K3 EDTA-containing tubes (Multivette 600 from Sarstedt), unless specified otherwise. All blood samples were promptly centrifuged to obtain plasma samples.
The plates were washed three times with phosphate buffered saline tween-20 (PBST) and the coated wells were blocked by incubation with 200 μl/well of 1% BSA in PBS for at least 2 h at RT. […] The plates were washed again with PBST, and each well was incubated with a goat anti-rabbit IgG-HRP conjugate (100 μl) for 1 h at RT. After yet another round of wash with PBST, each well was incubated with 100 μl of HRP substrate 3,3′,5,5′-tetramethylbenzedine (Cell Signaling, 7004). Upon adequate color development, 100 μl of stop solution (Cell Signaling, 7002) was added to each well, and absorbance at 450 nm was promptly recorded by a microtiter plate reader. Plasma FI concentration was determined using an assay kit (400-374-130050) from GenWay Biotech, following the manufacturer's instruction.
IB. Tissue samples were mixed with RIPA buffer (25 mM Tris-HCl, pH 7.6, 150 mM NaCl, 1% Nonidet P-40, 1% sodium deoxycholate, 0.1% SDS), supplemented with 2 mM phenylmethanesulfonyl fluoride, a proteinase inhibitor mix (Roche Applied Science) and phosphatase inhibitor Cocktail 2 (Sigma-Aldrich). Tissue samples were stroked in a Dounce homogenizer, and the homogenates were cleared by centrifugation at 12,000×g for 15 min at 4° C. Protein concentrations in all samples were measured by the BCA assay kit. Plasma samples were used without further processing (20 μl per sample). Each sample was mixed with 4× loading dye, heated for 5 min at 95° C. and then resolved by SDS-PAGE (8-12.5%). […] The proteins were transferred to polyvinylidene fluoride membrane, probed with specific antibodies and detected using the ECL Plus Kit (Amersham) or the SuperSignal West Pico Kit (Thermo Scientific).

ClC(Cl)(Cl)Cl [CCl4, Carbon tetrachloride]
average plasma level of mSRC, increase (plasma mSRC): 6.7% | changes in ERBB1/ERBB2 tyrosine phosphorylation and receptor depletion in heart, kidney and liver, WT mice compared to FXII−/− mice (ERBB1 and ERBB2): reduced changes in receptor tyrosine phosphorylation | liver damage (plasma AST, ALT, liver weight) (liver): caused significant but similar liver damage | average plasma level of mAβ1-42, increase (plasma Aβ1-42): 24.9% | plasma level of mPEPD, increase (plasma PEPD; FXII−/− mice): 16.7 fold | plasma level of mPEPD, increase (plasma PEPD; WT mice): 3.7 fold

[H]/N=C(/N)c1ccc(NCc2nc3cc(C(=O)N(CCC(=O)O)c4ccccn4)ccc3n2C)cc1 [dabigatran]
elevation of plasma levels of hAβ1-42 (plasma hAβ1-42; dabigatran 22.5 mg/kg oral once daily 5 days): 14.1 fold | elevation of plasma levels of hAβ1-42 (plasma hAβ1-42; dabigatran 45 mg/kg oral once daily 5 days): 21.3 fold | top dose tested is the maximal soluble dose (plasma hAβ1-42): maximal soluble doses

CC(=O)CC(c1ccccc1)c1c(O)c2ccccc2oc1=O (centres unmarked) [warfarin]
elevation of plasma levels of hAβ1-42 (plasma hAβ1-42; warfarin 1 mg/kg oral once daily 5 days): 33.2 fold | elevation of plasma levels of hAβ1-42 (plasma hAβ1-42; warfarin 3 mg/kg oral once daily 5 days): 42.4 fold

O=C(NC[C@H]1CN(c2ccc(N3CCOCC3=O)cc2)C(=O)O1)c1ccc(Cl)s1 [rivaroxaban]
relative effectiveness in elevating plasma hAβ1-42 level (plasma hAβ1-42; comparison among warfarin, rivaroxaban, dabigatran and with EP): the most effective; also recorded: not as effective as EP | top dose tested is the maximal soluble dose (plasma hAβ1-42): maximal soluble doses | elevation of plasma levels of hAβ1-42 (plasma hAβ1-42; rivaroxaban 10 mg/kg oral once daily 5 days): 47.2 fold | elevation of plasma levels of hAβ1-42 (plasma hAβ1-42; rivaroxaban 20 mg/kg oral once daily 5 days): 55.5 fold

B1: 185V-493Kdel-hPEPD: hPEPD deletion mutant, cannot form homodimers (protein, UniProt P12955 1-184, looked up, fragment)
chain: MAAATGPSFWLGNETLKVPLALFALNRQRLCERLRKNPAVQAGSIVVLQGGEETQRYCTDTGVLFRQESFFHWAFGVTEPGCYGVIDVDTGKSTLFVPRLPASHATWMGKIHSKEHFKEKYAVDDVQYVDEIASVLTSQKPSVLLTLRGVNTDSGSVCREASFDGISKFEVNNTILHPEIVECR
binding to FXII (FXII [1]): neither 185V-493Kdel-hPEPD nor 266T-493Kdel-hPEPD could bind to FXII

B2: 1M-228Hdel-hPEPD: hPEPD mutant named only once; probably 1M-265Rdel-hPEPD (protein, UniProt P12955 229-493, looked up, fragment)
chain: YCYSRGGMRHSSYTCICGSGENSAVLHYGHAGAPNDRTIQNGDMCLFDMGGEYYCFASDITCSFPANGKFTADQKAVYEAVLRSSRAVMGAMKPGVWWPDMHRLADRIHLEELAHMGILSGSVDAMVQAHLGAVFMPHGLGHFLGIDVHDVGGYPEGVERIDEPGLRSLRTARHLQPGMVLTVEPGIYFIDHLLDEALADPARASFLNREVLQRFRGFGGVRIEEDVVVTDSGIELLTCVPRTVEEIEACMAGCDKAFTPFSGPK
FXII activation, activity relative to hPEPD (FXII [2]): about 50%

B3: 266T-493Kdel-hPEPD: hPEPD deletion mutant, cannot form homodimers (protein, UniProt P12955 1-265, looked up, fragment)
chain: MAAATGPSFWLGNETLKVPLALFALNRQRLCERLRKNPAVQAGSIVVLQGGEETQRYCTDTGVLFRQESFFHWAFGVTEPGCYGVIDVDTGKSTLFVPRLPASHATWMGKIHSKEHFKEKYAVDDVQYVDEIASVLTSQKPSVLLTLRGVNTDSGSVCREASFDGISKFEVNNTILHPEIVECRVFKTDMELEVLRYTNKISSEAHREVMKAVKVGMKEYELESLFEHYCYSRGGMRHSSYTCICGSGENSAVLHYGHAGAPNDR
binding to FXII (FXII [1]): neither 185V-493Kdel-hPEPD nor 266T-493Kdel-hPEPD could bind to FXII

B4: 1M-265Rdel-hPEPD: hPEPD deletion mutant, cannot form homodimers (protein, UniProt P12955 266-493, looked up, fragment)
chain: TIQNGDMCLFDMGGEYYCFASDITCSFPANGKFTADQKAVYEAVLRSSRAVMGAMKPGVWWPDMHRLADRIHLEELAHMGILSGSVDAMVQAHLGAVFMPHGLGHFLGIDVHDVGGYPEGVERIDEPGLRSLRTARHLQPGMVLTVEPGIYFIDHLLDEALADPARASFLNREVLQRFRGFGGVRIEEDVVVTDSGIELLTCVPRTVEEIEACMAGCDKAFTPFSGPK
binding to FXII (FXII [1]): almost indistinguishable from hPEPD in FXII binding

B5: mPEPD: mouse PEPD purified from mouse kidney by immunoaffinity purification, without any tag (protein, UniProt Q11136 2-493, looked up)
Xaa-Pro dipeptidase: ASTVRPSFSLGNETLKVPLALFALNRQRLCERLRKNGAVQAASAVVLQGGEEMQRYCTDTSIIFRQESFFHWAFGVVESGCYGVIDVDTGKSTLFVPRLPDSYATWMGKIHSKEYFKEKYAVDDVQYTDEIASVLTSRNPSVLLTLRGVNTDSGSVCREASFEGISKFNVNNTILHPEIVECRVFKTDMELEVLRYTNRISSEAHREVMKAVKVGMKEYEMESLFQHYCYSRGGMRHTSYTCICCSGENAAVLHYGHAGAPNDRTIKDGDICLFDMGGEYYCFASDITCSFPANGKFTEDQKAIYEAVLRSCRTVMSTMKPGVWWPDMHRLADRIHLEELARIGLLSGSVDAMLQVHLGAVFMPHGLGHFLGLDVHDVGGYPEGVERIDEPGLRSLRTARHLEPGMVLTVEPGIYFIDHLLDQALADPAQACFFNQEVLQRFRNFGGVRIEEDVVVTDSGMELLTCVPRTVEEIEACMAGCDKASVPFSGQK
activation/cleavage of plasma coagulation factors [3]: elicited the same response as did hPEPD
